Here are results for twelve molecules from ChEMBL document CHEMBL1201862, “PubChem BioAssay data set” (2004).

Common to all, as to assay: DTP human tumour cell line panel, 48 h
For assay [1], the system named is M14.
The subject of assay [2] is SK-MEL-28.
Assay [3] relates to HCT-116.
The test system of assay [4] is IGROV-1.
Assay [5] has as its system U-251.
Assay [6] deals with MOLT-4.
Assay [7] relates to BT-549.
Assay [8] has as its system KM12.
Assay [9] relates to HOP-92.
Assay [10] deals with TK-10.
For assay [11], the system named is LOX IMVI.
Assay [12] has as its system NCI/ADR-RES.
The test system of assay [13] is UACC-62.
The subject of assay [14] is HT-29.
Assay [15] has as its system UO-31.
Assay [16] concerns HCT-15.
Assay [17] concerns SW-620.
The subject of assay [18] is SNB-19.
Assay [19] deals with EKVX.
Assay [20] has as its system MDA-MB-435.

SMILES strings stand for the structures.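 In this assay, cells in 96-well plates receive the compound at five concentrations for 48 hours. Endpoints are linearly interpolated between the surrounding concentrations. GI50 is the concentration that inhibits growth by half.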 The source made the active and inactive calls. Rule as the data show it: active = GI50 up to about 1.1 µM and inactive = higher.

Broadly, the GI50 is the concentration at which growth is held to half of that of the control.

Regarding `CC(C)n1c(=O)n(-c2ccccc2)n(C(C)(C)C)c1=O`, the GI50 in assay [1], in assay [2], in [3], in [4], in assay [5] and in assay [6] was > 100 µM (inactive) in each case. Besides, the GI50 in [7], in [8], in [9], in assay [10], in [11] and in [12] was > 100 µM (inactive) in each case. Besides, the GI50 is > 100 µM (inactive) in assay [13]; > 100 µM (inactive) in [14]; > 100 µM (inactive) in assay [15]; over 100 µM in assay [16]; > 100 µM (inactive) in assay [17]; > 100 µM (inactive) in assay [18]. Further, in assay [19], the GI50 is > 100 µM (inactive).

`NCc1ccc(-c2ccc(-c3ccc(-c4ccc(CN)s4)s3)s2)s1`: the GI50 in assay [1], in [2], in assay [3], in assay [4], in [5] and in assay [6] was > 100 µM (inactive) throughout. The GI50 in assay [8], in [9], in assay [10], in assay [11], in [12] and in [13] was > 100 µM (inactive) in each case. For the same molecule, the GI50 in assay [14] is > 100 µM (inactive); in assay [15], > 100 µM (inactive); in assay [16], over 100 µM; in [17], > 100 µM (inactive); in [18], > 100 µM (inactive); in [19], > 100 µM (inactive). For the same molecule, the GI50 in assay [20] is > 100 µM (inactive).

On to `CC(C)(C)[Si](C)(C)OC1(CCc2ccccc2OS(=O)(=O)C(F)(F)F)CCCC=C1COCc1ccccc1` (stereo not given), for which the GI50 in assay [2] is > 59.6 µM (inactive); in assay [3], 3.33 µM (inactive); in assay [4], 4.81 µM (inactive); in assay [5], 5 µM (inactive); in [6], 5.14 µM (inactive); in [7], > 100 µM (inactive). Besides, the GI50 in assay [8] was 14 µM (inactive); in assay [10], > 100 µM (inactive); in [11], 4.31 µM (inactive); in [12], > 100 µM (inactive); in [13], 29.5 µM (inactive); in [16], 12.5 µM. Besides, the GI50 in [17] was 58.1 µM (inactive); in assay [19], > 100 µM (inactive); in assay [20], > 100 µM (inactive).

As for `COC(=O)C(CCCCNC(=O)CNC(=O)OCc1ccccc1)NC(=O)C(CCCCNC(=O)CNC(=O)OCc1ccccc1)NC(=O)OCc1ccccc1` (stereo not given), the GI50 is > 100 µM (inactive) in assay [1]; 53.8 µM (inactive) in assay [2]; 84.7 µM (inactive) in assay [3]; > 10 µM (inactive) in assay [4]; 54 µM (inactive) in [5]; 33.4 µM (inactive) in [6]. Also, the GI50 in assay [7] is 20.7 µM (inactive); in [10], > 100 µM (inactive); in assay [11], 87.9 µM (inactive); in assay [13], 40 µM (inactive); in assay [14], > 100 µM (inactive); in assay [15], > 100 µM (inactive). Further, the GI50 in assay [16] was over 100 µM; in [17], > 100 µM (inactive); in assay [18], 93.3 µM (inactive); in assay [20] it was 19.8 µM (inactive).

For the molecule `CN(C)CC1CN=C(N)O1` (stereo not given), the GI50 in assay [1], in [2], in [3], in [5], in assay [6] and in [8] was > 100 µM (inactive) each time. Further, the GI50 in assay [9], in assay [10], in [11], in [12], in assay [13] and in assay [15] was > 100 µM (inactive) throughout. Besides, the GI50 in assay [16] is over 100 µM; in [17] it was > 100 µM (inactive); in assay [18] it was > 100 µM (inactive); in [19], > 100 µM (inactive); in assay [20], > 100 µM (inactive).

For the molecule `COc1cc2c(cc1OC)C1=C(C=O)c3ccc(OC)c(OC)c3C(O)N1CC2` (stereo not given), the GI50 in assay [1] was 21.9 µM (inactive); in assay [2] it was 31 µM (inactive); in [3] it was 30.5 µM (inactive); in assay [5], 19.2 µM (inactive); in [6], 12.5 µM (inactive); in assay [7] it was 22.2 µM (inactive). Besides, the GI50 in assay [8] is 28.9 µM (inactive); in [10] it was 20.9 µM (inactive); in [12] it was 26.4 µM (inactive); in assay [13] it was 13.8 µM (inactive); in assay [14], 21.4 µM (inactive); in assay [15], 37.5 µM (inactive). Besides, the GI50 in assay [16] was 30.8 µM; in [17] it was 37.2 µM (inactive); in [18], 26.2 µM (inactive); in assay [19], 21.6 µM (inactive); in assay [20] it was 32.2 µM (inactive).

Consider `O/N=C/c1ncccc1C1OCCO1`, for which the GI50 in assay [1], in [2], in [3], in [4], in [5] and in [6] was > 100 µM (inactive) in each case. In addition, the GI50 in [8], in assay [9], in assay [10], in assay [11], in [13] and in [14] was > 100 µM (inactive) in each case. For the same molecule, the GI50 in assay [15] was > 100 µM (inactive); in [16], over 100 µM; in assay [17] it was > 100 µM (inactive); in [18], > 100 µM (inactive); in assay [19], > 100 µM (inactive).

In the case of `S=C1C=C(c2ccccc2)Sc2ccccc2N1`, the GI50 in assay [1] was 57.9 µM (inactive); in assay [2], > 100 µM (inactive); in assay [3], 79.8 µM (inactive); in assay [4] it was > 100 µM (inactive); in assay [5], > 100 µM (inactive); in assay [6], 30.4 µM (inactive). Further, the GI50 in assay [7], in [8], in assay [10], in [11], in [12] and in assay [13] was > 100 µM (inactive) in each case. The GI50 in assay [14] is > 100 µM (inactive); in [15], > 100 µM (inactive); in assay [16], over 100 µM; in assay [18], > 100 µM (inactive); in [19], > 100 µM (inactive).

In the case of `COc1cc(C2c3cc4c(cc3[C@@H](Nc3ccc(F)cc3)C3COC[C@H]23)OCO4)cc(OC)c1O` (stereo not given in full), the GI50 in [1] was 2.22 µM (inactive); in [2], 5 µM (inactive); in assay [3], 2.07 µM (inactive); in [4], 11.9 µM (inactive); in [5] it was 0.811 µM (active); in [6], 0.118 µM (active). The GI50 was 4.66 µM (inactive) in assay [8]; 5.9 µM (inactive) in assay [10]; 6.92 µM (inactive) in assay [12]; 3.44 µM (inactive) in [14]; 0.488 µM (active) in assay [15]; 2.48 µM in [16]. The GI50 in [17] is 3.15 µM (inactive); in [18] it was 0.885 µM (active); in assay [19], 9.91 µM (inactive); in [20], 6.15 µM (inactive).

On to `CC(C)COC(=O)N1N=NC2C3CC(=O)C(O3)C21` (stereo not given), for which the GI50 in assay [1], in [2], in assay [3], in assay [4], in assay [5] and in assay [6] was > 100 µM (inactive) in each case. Moreover, the GI50 in assay [8] was > 100 µM (inactive); in assay [9], > 100 µM (inactive); in assay [10], 22.9 µM (inactive); in [11], > 100 µM (inactive); in [13], > 100 µM (inactive); in [14], > 100 µM (inactive). In addition, the GI50 was > 100 µM (inactive) in assay [15]; over 100 µM in assay [16]; > 100 µM (inactive) in assay [17]; > 100 µM (inactive) in [18]; > 100 µM (inactive) in assay [19].

Take `O=C1CC(C(COCc2ccccc2)OCc2ccccc2)CC(=O)N1` (stereo not given): the GI50 in assay [1], in [2], in [3], in [4], in assay [5] and in assay [6] was > 100 µM (inactive) each time. In addition, the GI50 in assay [7] was 45 µM (inactive); in assay [8], > 100 µM (inactive); in assay [9] it was > 100 µM (inactive); in assay [10], > 100 µM (inactive); in assay [11], > 100 µM (inactive); in [14] it was > 100 µM (inactive). Further, the GI50 is > 100 µM (inactive) in [15]; over 100 µM in assay [16]; > 100 µM (inactive) in [17]; > 100 µM (inactive) in [18]; > 100 µM (inactive) in assay [19]; > 100 µM (inactive) in assay [20].

Take `c1ccc(N2CCN(CCCN3CCc4c([nH]c5ccccc45)C3c3cccnc3)CC2)cc1` (stereo not given): the GI50 was 20.2 µM (inactive) in assay [1]; 61.9 µM (inactive) in [2]; 35.2 µM (inactive) in assay [3]; > 100 µM (inactive) in assay [4]; 19.1 µM (inactive) in [5]; 30.4 µM (inactive) in assay [6]. Further, the GI50 in [8] is 51.4 µM (inactive); in assay [9] it was > 100 µM (inactive); in assay [10] it was 23.7 µM (inactive); in assay [11], 41.2 µM (inactive); in assay [13], > 100 µM (inactive); in assay [14], 22.9 µM (inactive). Also, the GI50 in [15] was > 100 µM (inactive); in [16] it was 56 µM; in assay [17] it was > 100 µM (inactive); in assay [18], > 100 µM (inactive); in assay [19], > 100 µM (inactive).
